According to patent publication US12306176B2, “Microfluidic bi-directional migration assay” (Ohio State Innovation Foundation, priority 2017, dated 2025):

Tested on: MDA-MB-231 cells
Test: Microfluidic bi-directional migration (MBDM) assay, mean migration speed and persistence
Assay type: cell-based, human
From the text: To quantify the effects of iEF treatment on directed cell migration speed and persistence, a custom microfluidic bi-directional microtrack (MBDM) assay was developed that enables real-time monitoring with time-lapse microscopy of cell motility.
In this study, the EF sensing mechanisms of breast cancer cells in response to asymmetric iEFs (<100 μV/cm) was investigated. Using a MBDM assay, changes in the speed and persistence of spontaneously migrating MDA-MB-231 breast cancer cells were observed. This cell type was selected for these studies because it is a putative metastatic breast cancer cell line that is also responsive to gradients of a chemoattractant such as EGF (Wang S J, et al. (2004) Exp Cell Res 300 (1):180-189; Wu A, et al. (2013) Proc Natl Acad Sci U S A 110(40):16103-16108). […] This configuration enables direct comparison of cell movement in response to iEFs applied primarily with the direction of cell migration (“parallel”) or against the direction of cell migration (“anti-parallel”) within the same microfluidic device. Here, the field direction is defined as the direction that has the higher peak magnitude, as well as higher time-average field strength.
To calculate persistence, the following protocol was followed for each cell tracked in a microtrack of the MBDM assay. A cell starts at position Pt at time t. After a single time increment, dt, the cell moves to a new position, Pt+dt. The distance traveled during this time is the absolute difference in the two positions denoted as Li: Li=|Pt+dt−Pt|
The total distance traveled is then the sum of all distances traveled during N time increments denoted as Lt. Additionally, the total time of travel is the number of time increments multiplied by the size of the time increments denoted as Tt.
The displacement is simply the difference between the final and initial position: Ld=|PFinal−PInitial|
The MBDM assay was designed to have three ports separated by 700 μm long arrays of parallel microtracks (FIG. 1D). The dimension of each port was 50 mm×15 mm. Cells were seeded in the center port and the top and bottom ports were designated as cell collection port and/or chemokine source reservoir port depending on the experimental condition. Microchannels were designed to have a square cross-section of 20 μm×20 μm. The cross-section dimensions were on the same order as the size of single cells and mimic the dimensions of pre-existing microtracks available to cells in-vivo (Kraning-Rush C M, et al. (2013) lntegr Biol (Camb). 5 (3):606-616). Moreover, these migratory tracks are representative of physiologically relevant matrix metalloproteinase independent cancer-cell migration mode during metastasis (Friedl P & Alexander S (2011) Cell 147 (5):992-1009; Wolf K, et al. (2009) Semin Cell Dev Biol. 20 (8):931-941; Friedl P & Wolf K (2003) Nat Rev Cancer. 3 (5):362; Wolf K, et al. (2007) Nat Cell Biol. 9 (8):893; Wolf K, et al. (2003) J Cell Biol. 160 (2):267-277). The bi-directional design of this assay allows cells to migrate in either direction from the seeding port and provides a better understanding and quantification of the directional bias of external cues such as chemokine gradients and the directional effects of applied iEFs. The large ports for cell seeding ensure uniform seeding density, excellent cell viability, and repeatability.
Cells were washed in culture plates with 1×PBS solution, treated with 0.05% trypsin-EDTA solution (Sigma-Aldrich), and then counted using a hemocytometer. Cells (2×10^5) suspended in migration media were seeded in the middle port (seeding port) with an extremely small flow from the collection ports to the seeding port, which equilibrated in less than 15 minutes. The cells inside the devices were then incubated for 12 hours in migration media following which the media was aspirated and replaced with new media based on the experimental conditions. […]

[1] = MK2206 2.5 μM alone, no EGF, no iEF
[2] = MK2206 2.5 μM alone, under EGF gradient (25 ng/mL)
[3] = MK2206 2.5 μM plus anti-parallel iEFs, under EGF gradient
[4] = MK2206 2.5 μM plus parallel iEFs, under EGF gradient

Question: How did the “increase of mean migration speed compared to untreated controls” value [1] turn out when `NC1(c2ccc(-c3nc4ccn5c(=O)[nH]nc5c4cc3-c3ccccc3)cc2)CCC1` [MK2206] was run?
Answer: 9%

Question: And the “reduction of persistence compared to untreated controls” value [1]?
Answer: 31%

Question: And the “reduction of persistence below EGF-gradient conditions” value (MK2206 2.5 μM alone, under EGF gradient)?
Answer: 9%

Question: What about the mean migration speed [2] of the same compound?
Answer: 0.36 μm/min

Question: What about the “reduction of mean migration speed compared to EGF-gradient condition” value [2] of the same compound?
Answer: 16%

Question: What about the “persistence compared to MK2206 treatment alone” value (MK2206 2.5 μM co-applied with anti-parallel iEFs, no EGF) of the same compound?
Answer: significantly increased

Question: And the “average migration speed compared to untreated controls” value (MK2206 2.5 μM co-applied with iEFs, parallel or anti-parallel, no EGF)?
Answer: comparable modest decrease

Question: And the mean migration speed [3]?
Answer: 0.31 μm/min

Question: And the “reduction of mean migration speed below EGF controls” value [3]?
Answer: 28%

Question: And the “reduction of persistence from the EGF control” value [3]?
Answer: 26%

Question: And the mean migration speed [4]?
Answer: 0.26 μm/min

Question: What about the “reduction of mean migration speed below EGF controls” value [4] of the same compound?
Answer: 40%

Question: And the “reduction of persistence from the EGF control” value [4]?
Answer: 19%

Question: And the “directional response of migration speed to iEF” value (MK2206 treatment, no exogenous EGF gradient)?
Answer: nullified
